# Results published in patent publication US8431527B2, “Methods for alleviating deleterious effects of 3-deoxyglucosone” (Fox Chase Cancer Center, priority 1997, dated 2013).
# Columns and labels:
# FL3P = experiment: Kidney FL3P after injection of synthetic fructose-lysine; type: in vivo; conditions: non-diabetic rats
# Procedure: This identification was confirmed in two ways. Authentic fructose-lysine-3-phosphate (FL3P) was synthesized by the procedure disclosed in Example 2, below, and shown to co-resonate in the ^31P NMR spectrum with the peak in diabetic rat kidneys. Synthetic fructose-lysine was also injected into non-diabetic rats.
# lysine recovery pathway = experiment: Urinary FL, 3DG and 3DF in humans following ingestion of glycated protein; type: in vivo; conditions: seven volunteers, 2 g dose of fructoselysine as glycated protein food
# Procedure: c. Experimental protocol: Volunteers spent two days on a fructoselysine-free diet and then consumed 22.5 g of the food product prepared as described herein, thus effectively receiving a 2 g. dose of fructoselysine. Urine was collected at 2 hour intervals for 14 hours and a final collection was made at 24 hours. d. Measurement of FL, 3DG and 3DF in urine: FL was measured by HPLC with a Waters 996 diode Array using a Waters C18 Free Amino Acid column at 46° and a gradient elution system of acetonitrile-methyl alcohol-water (45:15:40) into acetonitrile-sodium acetate-water (6:2:92) at 1 ml./min. Quantitation employed an internal standard of meglumine. 3DF was measured by HPLC after deionization of the sample. Analyses were performed on a Dionex DX-500 HPLC system employing a PA1 column (Dionex) and eluting with 32 mM sodium hydroxide at 1 ml./min. Quantitation was performed from standard curves obtained daily with synthetic 3DF. 3DG was measured by GC-MS after deionization of the sample. 3DG was derivatized with a 10-fold excess of diaminonaphthalene in PBS. Ethyl acetate extraction gave a salt free fraction which was converted to the trimethyl silyl ethers with Tri-Sil (Pierce). Analysis was performed on a Hewlett-Packard 5890 selected ion monitoring GC-MS system. […] Quantitation of 3DG employed selected ion monitoring using an internal standard of U-13C-3DG.
# kidney proteins = test system: kidney proteins; design: species or system rats; conditions: rat, in vivo
# Procedure: Two rats were injected daily with 5 μmols. of either FL or mannitol (used as a control) for 5 days. The animals were sacrificed and the kidneys removed and dissected into the cortex and medulla. Tissues were homogenized in 5 volumes of 50 mM Tris.HCl containing 150 mM KCl, 15 mM MgCl2 and 5 mM DTT, pH 7.5. Cellular debris was removed by centrifugation at 10,000 g for 15 minutes, and the supernate was then centrifuged at 150,000 g for 70 minutes. The soluble proteins were analyzed by SDS PAGE on 12% polyacrylamide gels as well as on 4-15 and 10-20% gradient gels.
# 3DG = experiment: 3-O-methyl sorbitollysine lowers plasma 3DG in diabetic and non-diabetic rats; type: in vivo; conditions: Day 8
# Procedure: A cohort of twelve diabetic rats was divided into two groups of six. The first group received saline-only injections, and the second received injections of 3-O-methyl sorbitollysine in saline solution. The same procedure was conducted on a cohort of twelve non-diabetic rats.
# [1] = Locus of 3-O-methyl sorbitollysine uptake in vivo (tissue, urine, plasma recovery); design: species or system rats
# Procedure: Six rats were injected intraperitoneally with […] (4.4 mg) of 3-O-methyl sorbitollysine. The rats' urine was collected for 3 hours, after which the rats were sacrificed. The tissues to be analyzed were removed and freeze clamped in liquid nitrogen. Perchloric acid extracts of the tissues were used for metabolite analysis. The tissues examined were taken from the brain, heart, muscle, sciatic nerve, spleen, pancreas, liver and kidney. Plasma and urine were also analyzed.
# [2] = Stability of FL3P in aqueous solution; type: physicochemical; conditions: degrades to 3DG, lysine and inorganic phosphate
# From the text: FL3P is not stable in aqueous solution. It rapidly degrades to form 3DG, lysine and inorganic phosphate. This reaction also occurs in vivo. It is not currently know if the degradation of FL3P in vivo is a spontaneous or enzyme catalyzed reaction. It is strongly suspected, however, that enzymatic catalysis is involved, as the production of 3DG from fructose lysine occurs very rapidly in intact kidney.
# 3-deoxyglucosone = experiment: Reduction of urinary and plasma 3-deoxyglucosone after intraperitoneal injection; type: in vivo; conditions: rats, 10 μmols intraperitoneal
# Procedure: Urine was collected from six rats for three hours. A plasma sample was also obtained. The animals were then given 10 μmols of either sorbitollysine, mannitollysine, or galactitollysine by intraperitoneal injection. Urine was collected for another three hours, and a plasma sample obtained at the end of the three hours.
# 3-deoxyglucosone was measured in these samples, as described in Example 5, below, and variable volumes were normalized to creatinine. The average reduction of urinary 3-deoxyglucosone was 50% by sorbitollysine, 35% by mannitollysine and 35% by galactitollysine. Plasma 3-deoxyglucosone was reduced 40% by sorbitollysine, 58% by mannitolysine and 50% by galactitollysine.
# c. Use of meglumine to reduce urinary 3-deoxyglucosone. Three rats were treated as in b), immediately above, except meglumine (100 μmols) was injected intraperitoneally instead of the above-mentioned lysine derivatives. Three hours after the injection the average 3-deoxyglucosone concentrations in the urine were decreased 42%.
# 3DG was measured by GC-MS after deionization of the sample. 3DG was derivatized with a 10-fold excess of diaminonaphthalene in PBS. Ethyl acetate extraction gave a salt free fraction which was converted to the trimethyl silyl ethers with Tri-Sil (Pierce). […] Quantitation of 3DG employed selected ion monitoring using an internal standard of U-13C-3DG.
# [3] = 3 hours after intraperitoneal injection
molecule,measurement,setting,value
"NC(CCCCNCC(=O)C(O)C(O)C(O)CO)C(=O)O (centres unmarked) [FL, 1-deoxy-1-(ε-aminolysine)-fructose]",levels of FL3P in kidneys following injection,FL3P,substantial increase
same,time of peak urinary 3DF excretion after the FL bolus,lysine recovery pathway,about 4 hours
same,SDS PAGE of soluble kidney proteins vs mannitol-injected animal,kidney proteins,lower molecular weight bands were missing or visually reduced
"COC(C(O)CNCCCCC(N)C(=O)O)C(O)C(O)CO (centres unmarked) [3-O-methyl Sorbitollysine, 3-O-methyl sorbitollysine]",percent reduction of plasma 3DG vs saline control,3DG; diabetic rats,53%
same,percent reduction of plasma 3DG vs saline control,3DG; non-diabetic rats,43%
same,compound present in plasma,[1]; [3],plasma did not
same,"tissue extracts containing compound (brain, heart, muscle, sciatic nerve, spleen, pancreas, liver, kidney)",[1]; [3],only tissue extract found to contain 3-O-methyl sorbitollysine was that of the kidney
same,compound present in urine,[1]; urine collected for 3 hours,urine also contained 3-O-methyl sorbitollysine
"NC(CCCCNCC(=O)C(OP(=O)(O)O)C(O)C(O)CO)C(=O)O (centres unmarked) [FL3P, fructose-lysine-3-phosphate]",stability in aqueous solution,[2],not stable
galactitol lysine [galactitollysine],plasma 3-deoxyglucosone reduced,3-deoxyglucosone; plasma at end of three hours,50%
same,average reduction of urinary 3-deoxyglucosone,"3-deoxyglucosone; urine collected three hours after vs before, normalized to creatinine",35%
